Assay results from patent US11512085B2, “Heteroaryl compound having drug activity” (SHANGHAI DUDE MEDICAL TECHNOLOGY CO., LTD, priority 2017, dated 2022).
Read-outs that look alike come from different tables or passages of the source.

Legend:
SU-DHL-6 = assay: In vitro tumor cell proliferation (CellTiter-Glo), SU-DHL-6; format: cell-based; settings: Homo sapiens, SU-DHL-6, 72 h; read-out: Growth IC50
Procedure: (§1) Biological Embodiment 8: Study on Effects of Active Compounds for Inhibiting In Vitro Tumor Cell Proliferation
(§2) Promega CellTiter-Glo cell activity detection kit by luminescence (Promega-G7573).
(§3) Tumor cell lines were cultured in a 5% of CO2 incubator at 37° C. according to respective culture conditions; and periodic passage was performed, and cells positioned in a logarithmic phase were taken for planking.
(§4) 3) 90 μL of cell suspension was added into each well of the culture plate, and a culture solution containing no cell was added into blank control;
(§5) 4) the culture plate was cultured overnight in the 5% of CO2 incubator having relative humidity of 100% at 37° C.
(§6) Preparation of a 400× compound storage plate: the compound was diluted from the maximum concentration gradient to the lowest concentration with DMSO. […]
(§7) The following steps were performed according to the specification of the Promega CellTiter-Glo cell activity detection kit by luminescence (Promega-G7573). […]
(§8) 9) the luminescence signal was detected on the 2104 EnVision plate reader.

Lck = Lck (Homo sapiens, UniProt P06239); assay: Btk selectivity over Lck (same kinase method, Btk replaced); format: biochemical; settings: ratio of IC50 values
Sequence of Lck (P06239 whole entry): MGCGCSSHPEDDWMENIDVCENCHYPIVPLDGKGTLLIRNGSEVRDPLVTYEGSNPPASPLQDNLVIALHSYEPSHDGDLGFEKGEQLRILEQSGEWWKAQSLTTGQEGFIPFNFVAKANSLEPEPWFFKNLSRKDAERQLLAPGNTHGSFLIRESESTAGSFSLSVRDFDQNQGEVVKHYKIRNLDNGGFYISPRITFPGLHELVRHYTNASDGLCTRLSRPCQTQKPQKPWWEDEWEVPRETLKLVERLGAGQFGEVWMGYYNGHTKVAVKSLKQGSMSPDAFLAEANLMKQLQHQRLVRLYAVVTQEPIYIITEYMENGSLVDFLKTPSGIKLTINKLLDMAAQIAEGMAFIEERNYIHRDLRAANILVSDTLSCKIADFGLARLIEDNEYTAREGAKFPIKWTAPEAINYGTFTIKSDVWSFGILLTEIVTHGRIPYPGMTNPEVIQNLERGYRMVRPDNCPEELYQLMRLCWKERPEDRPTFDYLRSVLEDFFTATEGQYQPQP
Procedure: (§9) Other kinases (e.g., inhibitory activity of Lck and LynA is determined by replacing the Btk with various kinases and performing operations the same as that in the above method).

[1] = Pharmacokinetic study, single intravenous and oral dose, SD rats; format: in vivo; settings: male, blood; for AUC(0-t) / Cmax / Tmax / half-life: Rat; for half-life: read-out: T½ (converted)
Procedure: Biological Embodiment 7: Pharmacokinetic Study of Performing Respective Single Intravenous and Oral Dose Delivery with Test Samples on SD Rats and Beagle Dogs
6 male SD rats were selected, and grouped and administered according to an experimental design table; 3 animals in the first group were intravenously administered once on the day of administration, wherein the administration dosage was 2 mg/kg, and the administration volume was 5 mL/kg; 3 animals in the second group were orally intragastrically administered once on the day of administration, wherein the administration dosage was 10 mg/kg, and the administration volume was 10 mL/kg.
All the animals were subjected to cage edge observation twice every day so as to determine whether the animals got ill or had injuries or death and other situations and whether supply of foods and water was sufficient. In the test process, all administered animals were subjected to detailed clinical observation before administration and at blood collection points.
Before administration (0 h) and within 0.083 h, 0.25 h, 0.5 h, 1 h, 2 h, 4 h, 6 h, 8 h and 24 h after administration, blood samples were collected from femoral veins at 10 time points so as to be used for blood concentration test.

Raji = assay: In vitro tumor cell proliferation (CellTiter-Glo), Raji; format: cell-based; settings: Homo sapiens, 72 h, read-out: Growth IC50
Procedure: as §1, §2, §3, §4, §5, §6, §7, §8

TMD8 = assay: In vitro tumor cell proliferation (CellTiter-Glo), TMD8; format: cell-based; settings: Homo sapiens, TMD8, 72 h; read-out: Growth IC50
Procedure: as §1, §2, §3, §4, §5, §6, §7, §8

LynA = LynA (Homo sapiens, UniProt P07948); assay: Btk selectivity over LynA (same kinase method, Btk replaced); format: biochemical; settings: ratio of IC50 values
Sequence of LynA (P07948 whole entry): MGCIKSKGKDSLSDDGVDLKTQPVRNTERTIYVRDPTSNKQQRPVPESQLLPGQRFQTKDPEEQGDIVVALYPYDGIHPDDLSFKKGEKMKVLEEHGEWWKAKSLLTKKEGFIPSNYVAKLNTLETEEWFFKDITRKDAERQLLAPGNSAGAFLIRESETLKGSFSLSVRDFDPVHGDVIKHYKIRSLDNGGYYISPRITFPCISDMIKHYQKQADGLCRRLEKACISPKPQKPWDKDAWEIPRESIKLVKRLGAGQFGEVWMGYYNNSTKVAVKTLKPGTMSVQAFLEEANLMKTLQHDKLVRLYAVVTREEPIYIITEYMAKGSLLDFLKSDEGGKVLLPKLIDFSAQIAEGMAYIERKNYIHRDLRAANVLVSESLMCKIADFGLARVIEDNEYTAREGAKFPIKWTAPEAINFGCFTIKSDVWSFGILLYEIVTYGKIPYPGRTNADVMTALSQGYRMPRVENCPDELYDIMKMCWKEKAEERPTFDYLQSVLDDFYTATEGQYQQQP
Procedure: as §9

WSU-NHL = assay: In vitro tumor cell proliferation (CellTiter-Glo), WSU-NHL; format: cell-based; settings: Homo sapiens, 72 h, read-out: Growth IC50
Procedure: as §1, §2, §3, §4, §5, §6, §7, §8

DB = assay: In vitro tumor cell proliferation (CellTiter-Glo), DB; format: cell-based; settings: Homo sapiens, 72 h, read-out: Growth IC50
Procedure: as §1, §2, §3, §4, §5, §6, §7, §8

[2] = Human liver microsome stability test; format: in vitro ADME
Procedure: (§10) Preparation of Buffer Solution:
(§11) 1. 100 mM potassium phosphate buffer solution, pH of 7.4
(§12) Preparation of Test Compound Solution:
(§13) 1. A test compound solution (10 mM, 5 μL) was diluted with a methanol solution (495 μL), and a 100 μM solution was prepared;
(§14) 2. Preparation of a working solution: the above solution (50 μL) was diluted with the potassium phosphate buffer solution (450 μL, 100 mM) so as to obtain diluents (10 μM).
(§15) NADPH Regeneration System (Final Concentration 1 Unit/mL of Isocitrate Dehydrogenase):
(§16) 1. beta-NADP, supplier: sigma Cat. No. N0505
(§17) 3. isocitrate dehydrogenase, supplier: sigma Cat. No. 12002
(§18) Cold acetonitrile containing 100 ng/mL of tolbutamide and 100 ng/mL of labetalol serves as an internal standard
(§19) 1. a 10 μL/well of working solution was added into plates (T0, T5, T10, T20, T30, T60, NCF60) beyond the blank;
(§20) 2. a 80 μL/well of microsome solution was added, and incubation was performed at 37° C. for 10 min;
(§21) 3. a 10 μL of 100 mM phosphate buffer solution was added into each well of an NCF60 plate, the plate was placed in a warm bath at 37° C., and timing started;
(§22) 4. a 10 μL/well of NADPH regeneration system was added after preheating, and a reaction started;
(§23) 5. incubation was performed at 37° C., and timing started
(§24) 6. a 300 μL/well of stop solution was added (4° C., containing 100 ng/mL of tolbutamide and 100 ng/mL of labetalol) to end the reaction;
(§25) 7. the plate was shaken for 10 min;
(§26) 8. centrifugation was performed at 4° C. at a rotation speed of 4000 rpm; and
(§27) 9. sample LC/MS/MS detection was performed.
(§28) Data Analysis Use Equation of First Order Kinetics to Calculate t½ and Clint(Mic): […]
(§29) equation of first order kinetics: […]

Mino = assay: In vitro tumor cell proliferation (CellTiter-Glo), Mino; format: cell-based; settings: Homo sapiens, 72 h, read-out: Growth IC50
Procedure: as §1, §2, §3, §4, §5, §6, §7, §8

DOHH-2 = assay: In vitro tumor cell proliferation (CellTiter-Glo), DOHH-2; format: cell-based; settings: Homo sapiens, DOHH-2, 72 h; read-out: Growth IC50
Procedure: as §1, §2, §3, §4, §5, §6, §7, §8

[3] = Rat liver microsome stability test; format: in vitro ADME
Procedure: as §10, §11, §12, §13, §14, §15, §16, §17, §18, §19, §20, §21, §22, §23, §24, §25, §26, §27, §28, §29

## C=CC(=O)NN1CCCC(n2nc(-c3ccc(Oc4ccccc4)cc3)c3c(N)ncnc32)C1 (stereo not shown) [Embodiment 6, N-(3-(4-amino-3-(4-phenoxyphenyl)-1H-pyrazolo[3,4-D]pyrimidine-1-yl)-1-piperidyl)-acrylamide]
SU-DHL-6
  IC50: > 10 µM
Lck
  Lck[IC50]/Btk[IC50]: 285
[1]; IV, 2 mg/kg
  AUC(0-t): 271 ng·h/mL
  Cmax: 658 ng/mL
  Tmax: 4.98 min
  half-life: 10.8 min
[1]; PO, 10 mg/kg
  AUC(0-t): 449 ng·h/mL
  Cmax: 447 ng/mL
  Tmax: 25.2 min
  half-life: 113 min
[1]; rat, oral, 10 mg/kg
  bioavailability: 32.2%
Raji
  IC50: > 10 µM
TMD8
  IC50: 0.00085 µM
LynA
  LynA[IC50]/Btk[IC50]: 137
WSU-NHL
  IC50: 1.02 µM
DB
  IC50: > 10 µM
[2]; HLM 0.5, 60 min, no co-factor
  Remaining (*NCF = 60 min): 105.9%
[2]; HLM 0.5, 60 min with NADPH regenerating system
  Remaining (T = 60 min): 0.2%
[2]; human, liver microsomes, pH 7.4, HLM 0.5 (0.5 mg protein/mL)
  half-life at 1 µM: 4.3 min
[2]; human, liver microsomes, pH 7.4, HLM 0.5, read-out: CLint(mic)
  microsomal CLint at 1 µM: 325 µL/min/mg
[2]; human, liver microsomes, pH 7.4, HLM 0.5, scaled from CLint(mic)
  CLint scaled at 1 µM: 292 mL/min/kg
Mino
  IC50: 2.17 µM
DOHH-2
  IC50: < 0.003 µM
[3]; RLM 0.5, 60 min, no co-factor
  Remaining (*NCF = 60 min): 105.4%
[3]; RLM 0.5, 60 min with NADPH regenerating system
  Remaining (T = 60 min): 1.1%
[3]; rat, liver microsomes, pH 7.4, RLM 0.5 (0.5 mg protein/mL)
  half-life at 1 µM: 8.9 min
[3]; rat, liver microsomes, pH 7.4, RLM 0.5, read-out: CLint(mic)
  microsomal CLint at 1 µM: 155 µL/min/mg
[3]; rat, liver microsomes, pH 7.4, RLM 0.5, scaled from CLint(mic)
  CLint scaled at 1 µM: 280 mL/min/kg
